Results as given in publication PMC11775380, “Discovery of Novel Nav1.7-Selective Inhibitors with the 1H-Indole-3-Propionamide Scaffold for Effective Pain Relief” (Research, 2025).
Where two headings read alike, the source gives them in different places.

How the values were obtained:
[1] = tested on: native Na+ current (Nav channels) in DRG neurons; test: Voltage-clamp recording of native Na+ current in DRG neurons; type: cell-based; conditions: 10 μM; mouse DRG neurons
Experimental: To investigate the mechanism of action of WN2-R and facilitate animal model experiments, we used voltage-clamp recording to test the effects of WN2-R on the native Na^+-, K^+-, and Ca^2+-mediated currents in DRG neurons. […] Furthermore, the effects of WN2-R on membrane excitability were examined in small (<30 μm) DRG neurons from mice using current-clamp recordings.
DRG isolation and culture were performed according to our previous report. Briefly, C57BL/6 mice (weight 18 to 20 g, 6 to 8 weeks) were euthanized via cervical dislocation under anesthesia. Lumbar DRGs were isolated from the L4 to L5 segments of the lumbar spinal cord. The DRG neurons were subsequently dissociated through enzymatic digestion with collagenase (0.32 mg/ml) and trypsin (0.15 mg/ml) at 37 °C for 30 min, with intermittent shaking. After centrifugation at 800 rpm for 5 min at room temperature, the cells were seeded onto poly-L-lysine-coated coverslips and cultured in DMEM (Gibco) supplemented with 10% fetal bovine serum (Gibco). […]
For recording Nav currents of DRG neurons, the bath solution contains (in mM) 30 NaCl, 1 MgCl2, 1.8 CaCl2, 5 CsCl, 5 KCl, 25 D-glucose, 5 HEPES, 0.1 CdCl2, and TEA-Cl (pH 7.4 with NaOH), and the pipette solution contains (in mM) 135 CsCl, 10 NaCl, and 5 HEPES (pH 7.4 with CsOH). The Nav current program is recorded following the above method. […]

[2] = Pharmacokinetic study in mice (p.o. and i.v.), LC-MS/MS of plasma; type: in vivo, ICR mice; conditions: for MRT last: read-out: MRT(0-t); for MRT inf: read-out: MRT(0-∞)
Experimental: To evaluate the pharmaceutical properties of WN2-R, a preliminary pharmacokinetic study was conducted in mice to examine the in vivo pharmacokinetic profile following both oral (p.o.) and intravenous (i.v.) administrations, along with the determination of bioavailability (Table 2). Under p.o. conditions, WN2-R was rapidly absorbed, with drug detection occurring within 5 min. […] Similar to the p.o. study, the plasma concentration decreased gradually over time, approaching the quantitation limit at 6 to 8 h post-dosing (Fig. 7C).
The pharmacokinetic and bioavailability of WN2-R were examined in ICR mice following both p.o. and i.v. administrations. All animal experiment procedures were carried out in accordance with the animal experiment procedures promulgated by the State Science and Technology Commission of China and Animal Care and Use Committee of Institute of Materia Medica, Chinese Academy of Medical Sciences (registry no. 00008517). Male ICR mice (n = 12), weighing 20 ± 2 g, were obtained from Beijing Vital River Experimental Animal Co., Ltd. (Beijing, China). Before the experiment, the mice were kept under standard conditions, including a 12-h light/dark cycle, adequate ventilation, a temperature of 25 ± 2 °C, and 60% relative humidity. WN2-R, suspended in physiological saline, was orally administrated to mice at 10 mg/kg after an overnight fast. In addition, the mice were injected via caudal vein with WN2-R dissolved in 20% HP-β-CD at 1 mg/kg. Blood samples were collected from the retro-orbital venous plexus to ice-cooled EP tube containing 0.5% heparin sodium at 0.033 (i.v. only), 0.083, 0.25, 0.5, 1, 2, 4, 6, 8, 12, and 24 h after dosing. Plasma was obtained by centrifugation of blood at 8,000 rpm for 5 min. Subsequently, 20 μl of plasma sample was mixed with 140 μl of acetonitrile, vortexed for 30 s, and centrifuged twice at 14,000 rpm for 5 min. The resulting supernatant (2 μl) was analyzed by the liquid chromatography–tandem mass spectrometry (LC-MS/MS) method.
The LC-MS/MS system consisted of Thermo TSQ Access Max mass and Vanquish liquid chromatograph (Thermo Scientific, USA). Zorbax-SB C18 column (2.1 × 100 mm, 3.5 μm Agilent USA) was used in the analysis. The mobile phase consisted of water containing 0.1% formic acid (Phase A) and acetonitrile (Phase B) at a flow rate of 0.25 ml/min with an operation temperature of 35 °C. A gradient elution system was used as follows: 40% B at 0 to 1 min, 90% B at 1 to 4 min, 90% B down to 40% B at 4 to 5 min, and 40% B at 5 to 7 min. The automatic sampler was maintained at 15 °C throughout the analysis. For the mass spectrometry analysis, positive ion scanning in selected reaction monitor mode was applied to monitor the transition of m/z 458.2 to 191.9 for the determination of WN2-R. Besides, other instrument parameters, including ion spray voltage, capillary temperature, sheath gas, auxiliary gas, and collision energy, were optimized to enhance the analysis of WN2-R.
EXCEL and PRISM8.0 were used for data and chart preparation. The Winnolin professional software was employed for the pharmacokinetic parameter calculation. Bioavailability was calculated using the following formula: F (%) = (Di.v. × AUCp.o.)/(Dp.o. × AUCi.v.) × 100%.

[3] = male, ICR, mouse, plasma, iv, i.v. (1 mg/kg)
[4] = male, ICR, mouse, plasma, po, p.o. (10 mg/kg)

Cc1ccc(Cn2cc([C@H](CC(=O)NCCN(C)C)c3ccc(F)cc3)c3ccccc32)cc1 [WN2-R]
Effect on native Na+ current [1]: completely inhibited
Time at which Cmax was detected ([2]; i.v. (1 mg/kg)): 2 min
V ([2]; i.v. (1 mg/kg)): 23,580.98 ± 2,679.45 ml/kg
Cmax ([2]; male, ICR, mouse, iv, i.v. (1 mg/kg), plasma): 269 ± 11.9 ng/mL
AUC(0-inf) [2, 3]: 271 ± 30.8 ng·h/mL
AUC(0-t) [2, 3]: 267 ± 29.7 ng·h/mL
Tmax [2, 3]: 0.033 h
clearance [2, 3]: 62 mL/min/kg
half-life [2, 3]: 4.47 ± 0.96 h
MRT last [2, 3]: 3.21 ± 0.28 h
MRT inf [2, 3]: 3.56 ± 0.44 h
bioavailability ([2]; male, ICR, mouse, plasma, oral, p.o. 10 mg/kg vs i.v. 1 mg/kg, from AUC(0-t), read-out: F (bioavailability)): 20.3%
AUC(0-inf) [2, 4]: 546 ± 98.1 ng·h/mL
AUC(0-t) [2, 4]: 542 ± 98.5 ng·h/mL
Tmax [2, 4]: 0.25 h
half-life [2, 4]: 3.46 ± 0.5 h
MRT last [2, 4]: 5.66 ± 0.33 h
MRT inf [2, 4]: 5.87 ± 0.4 h
Cmax ([2]; male, ICR, mouse, po, p.o. (10 mg/kg), plasma): 139 ± 25.4 ng/mL
